# In ChEMBL document CHEMBL5291721, “A preclinical secondary pharmacology resource illuminates target-adverse drug reaction associations of marketed drugs” (Nat Commun, 2023):
# Experiments:
# [1] = biological target: T1, Muscarinic acetylcholine receptor M1 (Homo sapiens, UniProt P11229); further: assay procedure not described here
# T1 sequence (P11229 whole entry): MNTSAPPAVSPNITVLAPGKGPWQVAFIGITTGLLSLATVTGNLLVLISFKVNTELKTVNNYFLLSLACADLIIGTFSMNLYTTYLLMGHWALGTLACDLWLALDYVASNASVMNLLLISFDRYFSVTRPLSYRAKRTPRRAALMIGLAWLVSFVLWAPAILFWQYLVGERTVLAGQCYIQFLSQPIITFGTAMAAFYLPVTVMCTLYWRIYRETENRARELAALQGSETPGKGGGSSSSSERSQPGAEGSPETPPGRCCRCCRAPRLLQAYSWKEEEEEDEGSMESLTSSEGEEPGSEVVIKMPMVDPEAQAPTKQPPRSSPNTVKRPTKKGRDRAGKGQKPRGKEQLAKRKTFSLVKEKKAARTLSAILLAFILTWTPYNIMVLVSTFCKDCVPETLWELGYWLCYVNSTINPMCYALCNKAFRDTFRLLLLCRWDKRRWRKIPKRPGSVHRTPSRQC
# [2] = biological target: T2, Alpha-2A adrenergic receptor (Homo sapiens, UniProt P08913)
# T2 sequence (P08913 whole entry): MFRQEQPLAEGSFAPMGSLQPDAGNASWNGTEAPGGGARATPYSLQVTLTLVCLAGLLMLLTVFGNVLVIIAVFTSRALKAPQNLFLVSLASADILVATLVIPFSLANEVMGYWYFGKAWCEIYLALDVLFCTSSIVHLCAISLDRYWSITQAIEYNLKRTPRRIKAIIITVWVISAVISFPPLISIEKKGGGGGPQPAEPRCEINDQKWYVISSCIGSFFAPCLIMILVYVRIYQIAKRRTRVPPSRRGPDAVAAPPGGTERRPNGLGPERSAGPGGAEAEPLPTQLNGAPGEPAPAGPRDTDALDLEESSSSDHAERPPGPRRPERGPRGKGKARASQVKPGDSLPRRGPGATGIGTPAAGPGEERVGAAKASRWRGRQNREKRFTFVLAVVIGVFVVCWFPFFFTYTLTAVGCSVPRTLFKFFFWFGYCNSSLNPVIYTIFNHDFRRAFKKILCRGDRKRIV
Compound,AC50 [1] [nM],AC50 [2] [nM]
COLISTIN,> 30000,
CC(C)CC(N(C)C)C1(c2ccc(Cl)cc2)CCC1 (configuration not stated) [SIBUTRAMINE],,2140
